In patent US4879303A, “Pharmaceutically acceptable salts” (priority 1986, dated 1989):
Where a name gives a salt, the structure may show the parent alone. Read-outs that look alike come from different tables or passages of the source.

How the values were obtained:
[1] = Chemical stability of salts blended in powder vehicle (tablets or capsules), breakdown products by tlc, ranked
Procedure: In order to screen for chemical stability, each of the salts was blended in a powder vehicle and formed into tablets or capsules. In the case of tablets the vehicle comprised microcrystalline cellulose in 50:50 combination with anhydrous dibasic calcium phosphate. In the case of capsules the vehicles comprised mannitol in 4:1 combination with dried maize starch. These were then stored in sealed vials at 50° and 75° C. for up to three weeks. The drug and any breakdown products were extracted with methanol:chloroform (50:50) and separated on silica tlc plates using a variety of solvent systems.
The results were compared and the salts ranked according to the number and amount of breakdown product produced.

[2] = Aqueous solubility of amlodipine salts and pH at saturation; type: physicochemical; conditions: for solubility (in words): qualitative statement
Description: Although amlodipine is effective as the free base, in practice it is best administered in the form of a salt of a pharmaceutically acceptable acid.
1. Generally, it is known in the art that a good aqueous solubility is necessary for good bioavailability. […] In addition, salts which provide solutions having a pH close to that of blood (7.4) are preferred because they are readily biocompatible and can easily be buffered to the required pH range without altering their solubility.

[3] = Hygroscopicity: moisture pick-up on exposure to relative humidity; type: physicochemical; conditions: for moisture pick-up: 75% relative humidity, 37° C., 24 hours; for hydration state after exposure: 95% relative humidity, 30° C., 3 days
Description: 3. In order to provide stable formulations it is desirable to have a non-hygroscopic salt. In the solid state where drug content is high, absorbed films of moisture can act as a vector for hydrolysis and chemical breakdown. It is the hygroscopic nature of a drug or its salt which contributes to the free moisture which is normally responsible for instability.
Therefore the besylate salt can be considered to be non-hygroscopic and thus provides stale formulations while minimising the risk of intrinsic chemical breakdown.

[4] = Stickiness: amlodipine sticking to tablet punch (processability); type: physicochemical; conditions: for processability / anti-adhesion properties (in words): qualitative statement; for Stickiness: runs of 50 to 300 tablets, calcium sulphate dihydrate/microcrystalline cellulose/salt 47.5:47.5:5, average from slope
Description: 4. The final characteristic of an acceptable salt to be considered is the processability, i.e. the compression properties and also the ability not to stick or adhere to the tablet making machinery. For high dose formulations, good compressibility is very important to make elegant tablets. With lower dose tablets the need for good compressibility can be eliminated to a certain extent by the use of suitable diluting excipients called compression aids. Microcrystalline cellulose is a commonly used compression aid. However whatever the dose the adhesion of the drug to the punches of the tablet machine must be avoided. When drug accumulates on the punch surfaces this causes the tablet surface to become pitted and therefore unacceptable. […] In practice it is possible to reduce sticking by wet-massing, careful selection of excipients and the use of high levels of anti-adherents, e.g. magnesium stearate. […] This procedure was then repeated for runs of 100, 150, 200, 250 and 300 tables. After each run the amount of material sticking to the tablet punch was measured after extraction with methanol. The values are plotted and an average value calculated from the slope of the line produced. This same procedure was then repeated for each of the salts of amlodipine.

[5] = type: physicochemical
Description: Consequently a range of pharmaceutically acceptable salts of amlodipine has been made and evaluated using these criteria: […]

[6] = Hydration / composition after isolation of the salt; type: physicochemical; conditions: after manufacture
[7] = listed as besylate salt of amlodipine
[8] = listed as Benzene sulphonate (besylate)
[9] = listed as Toluene sulphonate (tosylate)

CCOC(=O)C1=C(COCCN)NC(C)=C(C(=O)OC)C1c1ccccc1Cl (stereo not drawn) [Acetate]
Stability (rank order) [1]: .dwnarw. | solubility [2]: 50000 µg/mL | pH at saturation [2]: 6.6

CCOC(=O)C1=C(COCCN)NC(C)=C(C(=O)OC)C1c1ccccc1Cl (stereo not drawn) [Besylate, amlodipine benzenesulphonate]
hygroscopicity (overall conclusion) [3]: non-hygroscopic | moisture pick-up [3]: do not pick up any moisture | hydration state after exposure [3]: remain anhydrous | hygroscopicity (overall conclusion) [3, 7]: non-hygroscopicity | processability / anti-adhesion properties (in words) [4]: superior anti-adhesion properties to the maleate | processability / anti-adhesion properties (in words) [4, 7]: good processability | Stickiness relative to maleate [4]: 59% | Stickiness [4]: 1.17 g Amlodipine cm^-2 tablet^-1 | Stability (rank order) [1]: most stable | stability (overall conclusion) [1]: good stability | pH at saturation [2, 8]: 6.6 | solubility [2, 8]: 4600 µg/mL | solubility (in words) [2, 7]: good solubility characteristics

CCOC(=O)C1=C(COCCN)NC(C)=C(C(=O)OC)C1c1ccccc1Cl (stereo not drawn) [Free base, 3-ethyl 5-methyl 2-(2-aminoethoxymethyl)-4-(2-chlorophenyl)-1,4-dihydro-6-methylpyridine-3,5-dicarboxylate]
Stickiness relative to maleate [4]: 102% | Stickiness [4]: 2.02 g Amlodipine cm^-2 tablet^-1

CCOC(=O)C1=C(COCCN)NC(C)=C(C(=O)OC)C1c1ccccc1Cl (stereo not drawn) [Hydrochloride]
Stickiness relative to maleate [4]: 127% | Stickiness [4]: 2.51 g Amlodipine cm^-2 tablet^-1 | solubility [2]: 50000 µg/mL | pH at saturation [2]: 3.5

CCOC(=O)C1=C(COCCN)NC(C)=C(C(=O)OC)C1c1ccccc1Cl (stereo not drawn) [Maleate]
moisture pick-up [3]: do not pick up any moisture | hydration state after exposure [3]: remain anhydrous | Stickiness relative to maleate [4]: 100% | Stickiness [4]: 1.98 g Amlodipine cm^-2 tablet^-1 | Stability (rank order) [1]: .dwnarw. | solubility [2]: 4500 µg/mL | pH at saturation [2]: 4.8 | solubility (in words) [2]: excellent solubility | stability in solution [5]: tends to break-down in solution after a few weeks

CCOC(=O)C1=C(COCCN)NC(C)=C(C(=O)OC)C1c1ccccc1Cl (stereo not drawn) [Mesylate]
hydration after isolation as the anhydride [6]: equilibrates to the monohydrate | processability / anti-adhesion properties (in words) [4]: good processability | Stickiness relative to maleate [4]: 58% | Stickiness [4]: 1.16 g Amlodipine cm^-2 tablet^-1 | Stability (rank order) [1]: .dwnarw. | pH at saturation ([2]; listed as Methane sulphonate (mesylate)): 3.1

CCOC(=O)C1=C(COCCN)NC(C)=C(C(=O)OC)C1c1ccccc1Cl (stereo not drawn) [Salicylate]
Stability (rank order) ([1]; powder vehicle tablets or capsules, sealed vials, 50° and 75° C., up to three weeks, ranked by number and amount of breakdown product, listed from most stable to unstable): .dwnarw. | solubility [2]: 1000 µg/mL

CCOC(=O)C1=C(COCCN)NC(C)=C(C(=O)OC)C1c1ccccc1Cl (stereo not drawn) [Succinate]
Stickiness relative to maleate [4]: 121% | Stickiness [4]: 2.39 g Amlodipine cm^-2 tablet^-1 | Stability (rank order) [1]: .dwnarw. | solubility [2]: 4400 µg/mL | pH at saturation [2]: 4.9

CCOC(=O)C1=C(COCCN)NC(C)=C(C(=O)OC)C1c1ccccc1Cl (stereo not drawn) [Tosylate]
moisture pick-up [3]: do not pick up any moisture | hydration state after exposure [3]: formed the dihydrate salt | Stickiness relative to maleate [4]: 98% | Stickiness [4]: 1.95 g Amlodipine cm^-2 tablet^-1 | Stability (rank order) [1]: .dwnarw. | pH at saturation [2, 9]: 5.9 | solubility [2, 9]: 900 µg/mL
